The numbers were not newly measured in patent publication US6582919B2, “Method of determining epidermal growth factor receptor and HER2-neu gene expression and correlation of levels thereof with survival rates” (Response Genetics, Inc., priority 2001, dated 2003), which cites them from elsewhere.

The test system of data set [1] is EGFR expressing human mammary carcinoma cells. The conditions noted are these: cells injected into athymic nude mice (Toi et al. 1990).
In data set [2] the test system is tumors not expressing EGFR. The conditions noted are these: Toi et al. 1990.

Molecules are shown by their SMILES.

Consider `O=CN/C=C/c1cc(O)ccc1O` [erbstatin], for which the “growth of EGFR expressing human mammary carcinoma cells” value in data set [1] is recorded as “reduced the growth”. Besides, the “growth of tumors not expressing EGFR” value in data set [2] is “no effect”.
